Patent US20260226101A1, “PEPTIDE WITH ANTI-INFLAMMATORY AND ANTI-MICROBIAL ACTIVITY” (priority 2023, published 2026)
Ends that are not written are not given here.

What was measured:
[1] = system: E. coli ATCC 8739-induced septic peritonitis; assay: E. coli-induced septic peritonitis model; format: in vivo, BALB/c mice; conditions: for Mice alive: 18 h after infection
Description: Bacterial strain of E. coli ATCC 8739™ were maintained in our laboratory and used for the mouse sepsis model. The strain was previously stored at −80° C. in a Luria Bertani (LB) broth with 15-20% of glycerol. Single colonies from viable, growing Luria-Bertani (LB) agar plates were transferred to sterile liquid LB medium (containing 10 g tryptone, 10 g NaCl, and 5 g yeast extract per liter) and cultivated aerobically in 50-ml volumes at 37° C. in an orbital shaker for 24 h at 37° C. These cultures were transferred to 500 ml of fresh LB medium for another 12 h. The optical density (OD) of the suspension was adjusted to 0.3 (exponential phase) using a spectrophotometer. Such OD corresponds to*10^8 colony-forming units (CFU)/mL. When bacteria were in the log phase of growth, the suspension was harvested by centrifugation at 1500×g for 5 min at 4° C.; the supernatant was discarded and washed and resuspended three times in phosphate-buffered saline (PBS) at pH 7.4 and mixed by vortexing to achieve a concentration of approximately 1×10^8 colony-formation units (CFU) per milliliter. Finally, the bacterial suspensions were incubated in a water bath at 100° C. for 30 min to inactivate the cells. One hundred microliters of the suspension were serially diluted with sterile saline solution, plated on sheep blood agar plates, and incubated for 18 hours for determination of the bacterial concentration. The rest of the culture suspension was stored at 4° C. until use. Just before the intraperitoneal injection, the bacterial suspension was adjusted to a concentration of 1×10^8 colony forming units (CFU) per 0.1 mL with normal saline solution/PBS.
This study was carried out within an animal containment BSL2 facility. The animals were infected with suspensions containing […] E. coli 8739™ (200 μL) inoculated intraperitoneally. The day of challenge was designated as day 1 of the experiment and considers it as 0 hr. [Wendy E. Walker, 2021; Komal Dolasia et al., 2018]
Mice received an intraperitoneal injection of E. coli ATCC 8739, 5.0×10^8 CFU per mouse in 200 μL to induce septic peritonitis as mentioned above. After 2 h of the E. coli infection, mice (n=6) were treated intravenously with two test doses of IS 111 (0.6 mg/kg & 1.2 mg/kg) in treatment groups. Control animals received 200 μL of normal saline. […] The figure was adopted and modified according to the present study. [Henrique G et al., 2020].
In all the animal experiments, IS 111 were administered by intravenous injections respectively; According to the clinical dosage regimen, IS 111 was repeatedly administered at 2 h after the intraperitoneal injection of heat-killed E. coli. The survival of mice was monitored for up to 5 days. In each group the half of the animals were killed after 18 hours. And in other subset of the animals, IS 111 at two doses 0.6 & 1.2 mg/kg were injected IV daily for 3 days following infection. The survival of mice was monitored for up to 18 h and the other half of the animals are continued for the survival monitored up to 5 days.
In the survival study, survival rates were determined over a period of 5 d with assessment every 12 h, by setting the day 0 from 0 to 18 h after surgery and continuing observation until […]. In each group the half of the animals were killed after 18 hours, in another half subset of animals was followed for 5 days for survival assessment after sepsis induction to verify mortality rates. IS 111 at two doses 0.6 & 1.2 mg/kg were injected IV daily 24 h for 3 days following the E. coli Infection.
The physical activity of the mice was recorded independently by two independent observers who were blinded to treatment before sampling as previously described. In this study predetermined grading system was used with a scale of 1 (healthy) to 5 (agony). […]

[2] = system: LPS-stimulated RAW 264.7 cells; assay: ELISA of cytokines in supernatants of LPS-stimulated RAW 264.7 cells; format: cell-based, murine
Description: Cells were sub-cultured by scraping when plates reached 70-80% confluence with a 1:5 ratio in fresh medium. RAW 264.7 cells were plated at density of 1×10^5 cells and allowed for attachment. The growth medium was then replaced with fresh medium without FBS and incubated for 6 h then cells were pre-treated with different concentrations of synthetic peptides: IS 111 (3.12, 6.25, 12.5, 25, 50 and 100 μg/mL) or dexamethasone (500 μg/mL) as a positive control for 1 h followed by stimulation of LPS (1 μg/mL) and then further incubated for 18 h and were allowed to adhere. After 18 h of incubation, plates were centrifuged for 6 min at 400×g and the supernatants and cell lysates were collected and kept frozen at −80° C. until used for further analysis.
At the end of the treatment period, cells were harvested in RNA isoplus reagent for subsequent cellular RNA extraction, for RTqPCR. The pro & anti-inflammatory cytokine production in supernatants was estimated by using ELISA, RTqPCR and western blotting in cell lysates. The experiment was carried out in triplicate. LPS and Dexamethasone were used as the controls.
The following treatments were applied for the anti-inflammatory test: • (1) The negative control: RAW 264.7 cells without being induced by lipopolysaccharide; no drug treatment. • (2) The positive control: RAW264.7 cells that were induced by […] of lipopolysaccharide (LPS group). • (3) The mixture of Synthetic peptides: IS 111 (3.12, 6.25, 12.5, 25, 50 and 100 μg/ml), LPS (1 μg/mL) and RAW 264.7 cells; and • (4) The standard positive control: The mixture of dexamethasone (500 μg/mL), LPS (1 μg/mL), and RAW 264.7 cells.
The levels of IL-6, TNF-α, IL-1β, and IL-10 in the supernatants of RAW 264.7 cell cultures were determined using an ELISA kit, according to the manufacturer's instructions (R&D Systems).

[3] = system: E. coli ATCC 8739-induced septic peritonitis; assay: E. coli-induced septic peritonitis model; format: in vivo, BALB/c mice; conditions: administration at 1, 24 and 72 h post injection of E. coli; last time point of 8 h
[4] = 0.6 mg/kg IV, 18 hr after induction of septic shock
[5] = 18 h, comparable to control mice
[6] = serum 18 h, therapeutic administration
[7] = 3.12-100 μg/mL pretreatment, LPS 18 h, vs LPS group

For “FAKKFAK [IS 111, Phe-Ala-Lys-Lys-Phe-Ala-Lys]”, the “Lung and liver injuries (histopathology)” value ([1]; 0.6 mg/kg IV, 18 h) was “reduces the injuries to moderate extent”, the Activity upon stimulation [1, 4] was “Sluggish activity. Animals” and the Conjunctivitis [1, 4] was “Mild (Usually serous”. The Hair coat [1, 4] was “Moderately ruffled coats”, the Mice alive ([1]; 0.6 mg/kg) was 50% and the Lymphocyte numbers [1, 5] was “restored”. The WBC numbers [1, 5] was “restored”, the Neutrophil numbers ([1]; 18 h, vs septic mice) was “marginally higher” and the Mice alive ([1]; […]) was 80%. The Survival ([1]; after 7 days of infection, IS 111 treatment groups) was 80%, the IL-1b level [1, 6] was “significantly reduce” and the IL-6 level [1, 6] was “significantly reduce”. The “IL-12 p70 level” value [1, 6] was “significantly reduce”, the TNF-α level [1, 6] was “significantly reduce” and the Reduction of mortality ([1]; vs diseased control animals (normal saline)) was 80%. The “IL-1β production (ELISA)” value [2, 7] was “inhibited”, the “IL-6 levels (ELISA)” value [2, 7] was “reduced” and the “IL-10 levels (ELISA)” value [2, 7] was “significantly increased”. The “TNF-alpha levels (ELISA)” value [2, 7] was “significantly reduced”, the “Concentration with better inhibition of TNF-α, IL-1β and IL-6 than 100 μg/mL” value ([2]; LPS induced RAW 264.7) was 25 µg/mL and the NO production ([2]; LPS-stimulated RAW cells, summary table) was “↓Cytotoxicity; ↓ NO production; ↓”. The Survival [3] was 80%.
